In brackets after ≈: the same amount, converted by molar mass. Where two headings read alike, the source gives them in different places.
Columns and labels:
[1] = system: amastigotes forms of the T. cruzi Y strain; assay: In vitro antitrypanosomal activity against amastigotes of moderately drug-resistant T. cruzi Y strain (Giemsa counting in LLC-MK2 cells); type: cell-based, Trypanosoma cruzi; settings: for SI Y Strain: CC50 of LLC-MK2 divided by IC50 at 72 h; for IC50: Trypanosoma cruzi, LLC-MK2, amastigotes, after 72 h, 95% confidence limits in parentheses
[2] = Cytotoxicity in murine spleen cells (propidium iodide, flow cytometry); type: cell-based, Swiss mice (Mus musculus); settings: Swiss, mouse, 95% confidence limits in parentheses
Procedure: The cytotoxicity of DBNs 1–4 was determined using the propidium iodide and trypan blue methodologies. To assess the cytotoxic activity using propidium iodide, mice spleen cells were sown at a concentration of 6.5 × 10^6 cells/mL in a 24-well plate. DBNs 1, 2, 3, 4, and BZN were added at concentrations ranging from 1.95 to 250 µM and incubated for 24 h at 37 °C in a 5% CO2 humidified incubator (Sanyo). After the incubation period, the cells were harvested and incubated with a 10 µg/mL propidium iodide solution (Sigma-Aldrich, St. Louis, MO, USA). The cell acquisition was performed within 15 min using a flow cytometer (BD-FACSCanto™II; BD Biosciences, BR), and cell counting was used to obtain the CC50 (50% cytotoxic concentration).

[3] = Cytotoxicity in LLC-MK2 cells (trypan blue); type: cell-based, Monkey (Macaca mulata); settings: rhesus monkey (Macaca mulatta), 95% confidence limits in parentheses
Procedure: To assess the cytotoxic activity of DBNs 1–4 using trypan blue, LLC-MK2 cells were sown at a concentration of 2 × 10^5 cells per well in 96-well plates. DBNs 1, 2, 3, 4, and BZN previously dissolved with DMSO were added to achieve the concentration range of 6.25-100 µM and incubated at 37 °C in a 5% CO2 humidified incubator (Sanyo) for 72 h. Next, the cells were trypsinized for 30 s, and then 10 μL of the supernatant was stained with 10 μL of a 0.4% trypan blue solution (Synth, São Paulo, Brazil). Cell counting was performed using transmitted light microscopy (Nikon) with 40X magnification using a Neubauer’s chamber (Global Glass), with a total of 100 cells being counted, where cellsstained blue were considered non-viable. Cell counting was used to obtain the CC50.

[4] = system: trypomastigote forms of the T. cruzi Y strain; set-up: method as in PMID 21570099; settings: cited from earlier work
[5] = system: Erythrocytes; assay: Hemolytic activity on defibrinated sheep blood; type: cell-based; settings: sheep red blood cells, 30 min, 37 °C
Procedure: The hemolytic activity was determined as described by Kaplum and co-workers with adaptations. Defibrinated sheep blood was diluted in 0.9% saline solution. Neolignans 1, 2, 3, 4, and BZN were solubilized in DMSO (Sigma-Aldrich, St. Louis, MO, USA) and added to microtubes containing red blood cells in concentrations from 6.25 to 100 µM. […] Distilled water was used as a positive control, and a 0.9% saline solution with 0.1% DMSO was used as the negative control.

[6] = system: epimastigote forms of the T. cruzi Y strain; set-up: method as in PMID 17015964; settings: cited from earlier work
[7] = system: epimastigote forms of the T. cruzi H6 strain; set-up: method as in PMID 12230115; settings: cited from earlier work
[8] = system: 60 humor tumor cell lines; set-up: method as in PMID 10639289; settings: molar drug concentration required for 50% growth inhibition; cited from earlier work
[9] = system: chloroquine-resistant Plasmodium falciparum (strain K1); set-up: method as in PMID 15653333; settings: cited from earlier work
[10] = system: Leishmania donovani axenic amastigotes; set-up: method as in PMID 15653333; settings: cited from earlier work
[11] = system: Leishmania donovani infected macrophage; set-up: method as in PMID 15653333; settings: cited from earlier work
[12] = system: trypomastigote forms of Trypanosoma brucei rhodiense; set-up: method as in PMID 15653333; settings: cited from earlier work
[13] = value in parentheses, read-out: IC50

O=C(Cn1ccnc1[N+](=O)[O-])NCc1ccccc1 [BZN, benznidazole, reference compound]
SI Y Strain [1]: 12.13 | IC50 [1]: 3.56 µM | CC50 at 24 h [2]: 1.81 µM | CC50 at 72 h [3]: 43.2 µM

C/C=C/c1cc(OC)c2c(c1)[C@H](C)[C@@H](c1ccc(O)c(OC)c1)O2 [(-)-licarin]
IC50 [4]: 23.5 µM

COC(=O)C=Cc1ccc2c(c1)C(C(=O)OC)C(c1ccc(O)cc1)O2 (mixture of isomers) [Compound 1, (±)-trans-dehydrodicoumarate dimethyl ester]
SI Y Strain [1]: 21.73 | IC50 [1]: 3.26 µM | CC50 at 24 h [2]: 49.9 µM | CC50 at 72 h [3]: 70.9 µM | CH50 Erythrocytes [5]: >100 µM

Eupatemoid-3
IC50 [6]: 26.3 µg/mL | IC50 [6, 13]: 90.9 µM

COC(=O)/C=C/c1ccc2oc(-c3ccc(O)cc3)c(C(=O)OC)c2c1 [Compound 7]
melting point: 204 to 206 °C

C/C=C/c1cc(OC)c2oc(-c3ccc(O)c(OC)c3)c(C)c2c1 [eupomatenoid-7]
IC50 [7]: 77 µM

COC(=O)C=Cc1cc(O)c2c(c1)C(C(=O)OC)C(c1ccc(O)c(O)c1)O2 (stereo not drawn) [Compound 3]
IC50 [1]: > 25 µM | CC50 at 24 h [2]: < 1.95 µM | CC50 at 72 h [3]: 30.8 µM | CH50 Erythrocytes [5]: >100 µM | GI50 [8]: 0.3 µM

COC(=O)CCc1ccc2c(c1)C(C(=O)OC)C(c1ccc(O)cc1)O2 (stereo not drawn) [Compound 12]
melting point: 108 to 110 °C

CCCCOC(=O)C=Cc1cc(O)c2c(c1)C(C(=O)OCCCC)C(c1ccc(O)c(O)c1)O2 (stereo not drawn)
IC50 [9]: 0.43 µg/mL (≈ 0.914 µM) | IC50 [10]: 0.12 µg/mL (≈ 0.255 µM) | IC50 [11]: 0.19 µg/mL (≈ 0.404 µM) | IC50 [12]: 0.29 µg/mL (≈ 0.616 µM)

eupomatenoid-5
IC50 [6]: 7.0 µg/mL | IC50 [6, 13]: 23.8 µM

C/C=C/c1cc(OC)c2c(c1)[C@H](C)[C@@H](c1ccc(O)c(OC)c1)O2 [licarin A]
IC50 [7]: 123 µM

(±)-licarin
IC50 [4]: 127 µM

C/C=C/c1ccc2oc(-c3ccc(O)cc3)c(C)c2c1 [eupomatenoid-6]
IC50 [6]: 7.5 µg/mL | IC50 [6, 13]: 28.4 µM

COC(=O)C=Cc1cc(OC)c2c(c1)C(C(=O)OC)C(c1ccc(OC(=O)c3ccccc3)c(OC)c1)O2 (stereo not drawn) [Compound 11]
melting point: 109 to 111 °C

COC(=O)C=Cc1ccc2c(c1)C(C(=O)OC)C(c1ccc(OC(C)=O)cc1)O2 (stereo not drawn) [Compound 4]
IC50 [1]: > 25 µM | CC50 at 24 h [2]: 51.1 µM | CC50 at 72 h [3]: 67.5 µM | CH50 Erythrocytes [5]: >100 µM | melting point: 103 to 105 °C

OCC=Cc1ccc2c(c1)C(CO)C(c1ccc(O)cc1)O2 (stereo not drawn) [Compound 9]
melting point: 139 to 140 °C

COC(=O)C=Cc1cc(OC)c2c(c1)C(C(=O)OC)C(c1ccc(O)c(OC)c1)O2 (stereo not drawn) [Compound 2]
IC50 [1]: > 25 µM | CC50 at 24 h [2]: 34.2 µM | CC50 at 72 h [3]: 67.6 µM | CH50 Erythrocytes [5]: >100 µM

C/C=C/c1cc(OC)c2c(c1)[C@@H](C)[C@H](c1ccc(O)c(OC)c1)O2 [(+)-licarin]
IC50 [4]: 87.7 µM

OCCCc1ccc2c(c1)C(CO)C(c1ccc(O)cc1)O2 (stereo not drawn) [Compound 14]
melting point: 120 to 121 °C

C/C=C/c1ccc2c(c1)[C@@H](C)[C@H](c1ccc(O)cc1)O2 [conocarpan]
IC50 [6]: 8.0 µg/mL | IC50 [6, 13]: 30 µM

— publication PMC10052957, “Exploring Synthetic Dihydrobenzofuran and Benzofuran Neolignans as Antiprotozoal Agents against Trypanosoma cruzi” (Pharmaceutics, 2023)
